How the values were obtained:
OVCAR3 p-RB = assay: pRB ICW Assay in OVCAR3 Cells; assay type: cell-based; settings: Homo sapiens, OVCAR-3, incubated with compound for 2 hours
Description: pRB ICW Assay in OVCAR3 Cells
OVCAR3 cells were maintained in RPMI (Corning, Catalog #: 10-040-CV) supplemented with 10% v/v FBS (Gibco, Catalog #: 26140-079), 1% v/v Penicillin Streptomycin (Gibco, Catalog #15140-122.) OVCAR3 cells grown at log phase were trypsinized, counted, and resuspended in fresh medium to reach a final density of 6.7e4 cells/mL and 75 μL of culture were dispensed into a 384-well plate (Falcon, cat #353962) using a Multidrop Combi dispenser (Thermo Scientific). The next day, compounds were dispensed as a 9-point, ½ log serial dilution using a Tecan digital dispenser (D300e), and cells were incubated with compound for 2 hours in a humidified incubator at 37° C. A reference compound at a final concentration of 10 μM was used as a control for maximum inhibition. Each compound was tested in duplicate for each experiment. At the end of the incubation, […] (Electron Microscopy, cat #15710) was slowly added to each well and the plate was incubated at room temperature (RT) for 30 minutes to fix cells. Cells were then permeabilized by incubating with 50 μL/well of wash buffer (1×PBS with 0.1% Triton X-100) 5×5 minutes, followed by 1 hour blocking with 30 μL/well of Odyssey blocking buffer (Li-COR, cat #927-40000), at RT. Anti-phosphor RB antibody (Cell signaling 8516S) was diluted 1:1000 in Odyssey blocking buffer and 20 μL was added to all wells and incubated overnight in 4° C. with gently rocking. The next day, cells were washed 5×5 min with 50 μL/well of wash buffer, followed with 1 hour incubation with secondary antibody and DRAQ5 diluted in Odyssey blocking buffer (1:500 dilution for secondary antibody and 1:2000 dilution for DRAQ5), 5×5 min washes, and one last wash with water. Plates were dried in 37° C. oven for 5 minutes and scanned using Li-COR Odyssey CLx imaging system to acquire intensities at 700 and 800 nm channels.

CDK2/Cyclin E2 = target: T1, CDK2/Cyclin E2 (Homo sapiens, UniProt P24941); assay: CDK2/CyclinE2 Enzymatic Activity Assay (TR-FRET); assay type: biochemical; settings: ATP 1 mM final, read-out: CDK2_E1 IC50
T1 construct: Recombinant protein complex CDK2/Cyclin E2, expressed from insect cell, was purchased from ProQinase
Description: CDK2/CyclinE2 Enzymatic Activity Assay
The inhibitory activity of compounds was evaluated in vitro using TR-FRET assay with white 384-well low volume microplate (Greiner Bio-One). CDK2/Cyclin E2 catalyzed phosphorylation of peptide in the presence and absence of compounds was measured and used in IC50 determination. Recombinant protein complex CDK2/Cyclin E2, expressed from insect cell, was purchased from ProQinase. Testing compounds were dissolved in DMSO at 1 mM and tested in 9-dose IC50 mode. The reaction mixture was prepared by mixing CDK2/CyclinE2 (1 nM final), ULight-4E-BP1 (50 nM final, Perkinelmer, TRF0128-D), and ATP (1 mM final) in assay buffer (20 mM of HEPES pH 7.4, 1 mM of EGTA, 0.05% BSA, 0.005% Tween 20, and 1 mM TCEP). The compound of interest in DMSO was added to each well in 3-fold serial dilution by dispenser (TECAN D300E) to make a 9.9 μL of reaction mixture. After 20 minutes preincubation at room temperature, 0.1 μL MgCl2 (10 mM final) was added to initiate the reaction. Following a 45 minute incubation at 37° C., the reaction was stopped by addition of 2 μL of quenching buffer consisting of Lance detection buffer (Perkinelmer CR97-100C), LANCE Ultra Europium-anti-P-4E-BP1 (Perkinelmer, TRF0216-D), EDTA, and incubated at room temperature for additional 60 minutes in the dark. The reaction signal was measured by Envision multimode plate reader (PerkinElmer, 2102-0010). IC50 values were determined by fitting the data to the standard 4 parameters with Hill Slope using GraphPad Prism software.

Row | Structure (SMILES) | IC50 (OVCAR3 p-RB) [nM] | IC50 (CDK2/Cyclin E2) [nM]
1 | C[C@@H]1CN(S(=O)(=O)c2cnn(C)c2)CC[C@@H]1Nc1ncc(C(F)(F)F)c(-c2ncc(CC(C)(C)O)s2)n1 [Example 111, 2-methyl-1-(2-(2-(((3R,4S)-3-methyl-1-((1-methyl-1H-pyrazol-4-yl)sulfonyl)piperidin-4-yl)amino)-5-(trifluoromethyl)pyrimidin-4-yl)thiazol-5-yl)propan-2-ol] | ≤ 100 | ≤ 100
2 | CC(O)c1cnc(-c2nc(NC3CCN(S(C)(=O)=O)CC3)ncc2C(F)(F)F)s1 (stereo not drawn) [Example 112, 1-(2-(2-((1-(methylsulfonyl)piperidin-4-yl)amino)-5-(trifluoromethyl)pyrimidin-4-yl)thiazol-5-yl)ethan-1-ol] | ≤ 100 | ≤ 100
3 | CS(=O)(=O)N1CCC(Nc2ncc(C(F)(F)F)c(-c3ncc(C(O)C(F)(F)F)s3)n2)CC1 (stereo not drawn) [Example 113, 2,2,2-trifluoro-1-(2-(2-((1-(methylsulfonyl)piperidin-4-yl)amino)-5-(trifluoromethyl)pyrimidin-4-yl)thiazol-5-yl)ethan-1-ol] | ≤ 100 | ≤ 100
4 | CC(O)c1cnc(-c2nc(N[C@@H]3CCN(S(=O)(=O)c4cnn(C)c4)C[C@H]3F)ncc2C(F)(F)F)s1 (stereo partly drawn) [Example 115, 1-(2-(2-(((3R,4R)-3-fluoro-1-((1-methyl-1H-pyrazol-4-yl)sulfonyl)piperidin-4-yl)amino)-5-(trifluoromethyl)pyrimidin-4-yl)thiazol-5-yl)ethan-1-ol] | ≤ 100 | ≤ 100
5 | CC(C)(O)c1sc(-c2nc(N[C@@H]3CCN(S(C)(=O)=O)C[C@H]3F)ncc2C(F)(F)F)cc1C#N [Example 116, 5-(2-(((3R,4R)-3-fluoro-1-(methylsulfonyl)piperidin-4-yl)amino)-5-(trifluoromethyl)pyrimidin-4-yl)-2-(2-hydroxypropan-2-yl)thiophene-3-carbonitrile] | ≤ 100 | ≤ 100
6 | Cn1cc(S(=O)(=O)N2CCC(Nc3ncc(C(F)(F)F)c(-c4cc(C#N)c(C(C)(C)O)s4)n3)CC2)cn1 [Example 117, 2-(2-hydroxypropan-2-yl)-5-(2-((1-((1-methyl-1H-pyrazol-4-yl)sulfonyl)piperidin-4-yl)amino)-5-(trifluoromethyl)pyrimidin-4-yl)thiophene-3-carbonitrile] | ≤ 100 | ≤ 100
7 | C[C@@H]1CN(S(=O)(=O)c2cnn(C)c2)CC[C@@H]1Nc1ncc(C(F)(F)F)c(-c2cc(C#N)c(C(C)(C)O)s2)n1 [Example 118, 2-(2-hydroxypropan-2-yl)-5-(2-(((3R,4S)-3-methyl-1-((1-methyl-1H-pyrazol-4-yl)sulfonyl)piperidin-4-yl)amino)-5-(trifluoromethyl)pyrimidin-4-yl)thiophene-3-carbonitrile] | 100 to 500 | ≤ 100
8 | Cn1cc(S(=O)(=O)N2CC[C@@H](Nc3ncc(C(F)(F)F)c(-c4cc(C#N)c(C(C)(C)O)s4)n3)[C@H](F)C2)cn1 [Example 119, 5-(2-(((3R,4R)-3-fluoro-1-((1-methyl-1H-pyrazol-4-yl)sulfonyl)piperidin-4-yl)amino)-5-(trifluoromethyl)pyrimidin-4-yl)-2-(2-hydroxypropan-2-yl)thiophene-3-carbonitrile] | ≤ 100 | ≤ 100
9 | C[C@@H]1CN(S(=O)(=O)c2c[nH]cn2)CC[C@@H]1Nc1ncc(C(F)(F)F)c(-c2cc(C#N)c(C(C)(C)O)s2)n1 [Example 120, 5-(2-(((3R,4S)-1-((1H-imidazol-4-yl)sulfonyl)-3-methylpiperidin-4-yl)amino)-5-(trifluoromethyl)pyrimidin-4-yl)-2-(2-hydroxypropan-2-yl)thiophene-3-carbonitrile] | ≤ 100 | ≤ 100
10 | C[C@@H]1CN(S(=O)(=O)c2cn(C)cn2)CC[C@@H]1Nc1ncc(C(F)(F)F)c(-c2cc(C#N)c(C(C)(C)O)s2)n1 [Example 121, 2-(2-hydroxypropan-2-yl)-5-(2-(((3R,4S)-3-methyl-1-((1-methyl-1H-imidazol-4-yl)sulfonyl)piperidin-4-yl)amino)-5-(trifluoromethyl)pyrimidin-4-yl)thiophene-3-carbonitrile] | 100 to 500 | ≤ 100
11 | CS(=O)(=O)N1CCC(Nc2ncc(C(F)(F)F)c(-c3cc(C#N)c(C(O)C(F)(F)F)s3)n2)CC1 (stereo not drawn) [Example 122, 5-(2-((1-(methylsulfonyl)piperidin-4-yl)amino)-5-(trifluoromethyl)pyrimidin-4-yl)-2-(2,2,2-trifluoro-1-hydroxyethyl)thiophene-3-carbonitrile] | ≤ 100 | ≤ 100
12 | C[C@@H]1CN(S(=O)(=O)c2cnn(C)c2)CC[C@@H]1Nc1ncc(C(F)(F)F)c(-c2cc(C#N)c(C(O)C(F)(F)F)s2)n1 (stereo partly drawn) [Example 123, 5-(2-(((3R,4S)-3-methyl-1-((1-methyl-1H-pyrazol-4-yl)sulfonyl)piperidin-4-yl)amino)-5-(trifluoromethyl)pyrimidin-4-yl)-2-(2,2,2-trifluoro-1-hydroxyethyl)thiophene-3-carbonitrile] | ≤ 100 | ≤ 100
13 | CC(C)(O)Cc1sc(-c2nc(NC3CCN(S(C)(=O)=O)CC3)ncc2C(F)(F)F)cc1C#N [Example 124, 2-(2-hydroxy-2-methylpropyl)-5-(2-((1-(methylsulfonyl)piperidin-4-yl)amino)-5-(trifluoromethyl)pyrimidin-4-yl)thiophene-3-carbonitrile] | ≤ 100 | ≤ 100
14 | Cn1cc(S(=O)(=O)N2CCC(Nc3ncc(C(F)(F)F)c(-c4cc(C#N)c(CC(C)(C)O)s4)n3)CC2)cn1 [Example 125, 2-(2-hydroxy-2-methylpropyl)-5-(2-((1-((1-methyl-1H-pyrazol-4-yl)sulfonyl)piperidin-4-yl)amino)-5-(trifluoromethyl)pyrimidin-4-yl)thiophene-3-carbonitrile] | 100 to 500 | ≤ 100
15 | Cn1cc(S(=O)(=O)N2CC[C@@H](Nc3ncc(C(F)(F)F)c(-c4cc(C#N)c(CC(C)(C)O)s4)n3)[C@H](F)C2)cn1 [Example 126, 5-(2-(((3R,4R)-3-fluoro-1-((1-methyl-1H-pyrazol-4-yl)sulfonyl)piperidin-4-yl)amino)-5-(trifluoromethyl)pyrimidin-4-yl)-2-(2-hydroxy-2-methylpropyl)thiophene-3-carbonitrile] | ≤ 100 | ≤ 100
16 | Cn1cnc(S(=O)(=O)N2CC[C@@H](Nc3ncc(C(F)(F)F)c(-c4cc(C#N)c(CC(C)(C)O)s4)n3)[C@H](F)C2)c1 [Example 127, 5-(2-(((3R,4R)-3-fluoro-1-((1-methyl-1H-imidazol-4-yl)sulfonyl)piperidin-4-yl)amino)-5-(trifluoromethyl)pyrimidin-4-yl)-2-(2-hydroxy-2-methylpropyl)thiophene-3-carbonitrile] | ≤ 100 | ≤ 100
17 | Cn1cc(S(=O)(=O)N2CC[C@@H](Nc3ncc(C(F)(F)F)c(-c4cc(C(N)=O)ns4)n3)[C@H](F)C2)cn1 [Example 128, 5-(2-(((3R,4R)-3-fluoro-1-((1-methyl-1H-pyrazol-4-yl)sulfonyl)piperidin-4-yl)amino)-5-(trifluoromethyl)pyrimidin-4-yl)isothiazole-3-carboxamide] | ≤ 100 | ≤ 100
18 | Cn1cc(S(=O)(=O)N2CC[C@H](Nc3ncc(C(F)(F)F)c(-c4cc(C(N)=O)ns4)n3)[C@H](F)C2)cn1 [Example 129, 5-(2-(((3R,4S)-3-fluoro-1-((1-methyl-1H-pyrazol-4-yl)sulfonyl)piperidin-4-yl)amino)-5-(trifluoromethyl)pyrimidin-4-yl)isothiazole-3-carboxamide] | ≤ 100 | ≤ 100

Reference: patent publication US20240150340A1, “CDK Inhibitors And Their Use As Pharmaceuticals” (Prelude Therapeutics Incorporated, priority 2022, published 2024)
